In this assay the target is T1, TcXyn30B (Talaromyces pinophilus, UniProt A0A510NXC4).
T1 construct: gene TCE0_018f06110; no His tag; vector residues AYVEF at N-terminus (numbered 18-22); secreted from Pichia pastoris GS115, N-glycosylated, 62182 Da; one molecule per asymmetric unit
T1 sequence (A0A510NXC4 23-474): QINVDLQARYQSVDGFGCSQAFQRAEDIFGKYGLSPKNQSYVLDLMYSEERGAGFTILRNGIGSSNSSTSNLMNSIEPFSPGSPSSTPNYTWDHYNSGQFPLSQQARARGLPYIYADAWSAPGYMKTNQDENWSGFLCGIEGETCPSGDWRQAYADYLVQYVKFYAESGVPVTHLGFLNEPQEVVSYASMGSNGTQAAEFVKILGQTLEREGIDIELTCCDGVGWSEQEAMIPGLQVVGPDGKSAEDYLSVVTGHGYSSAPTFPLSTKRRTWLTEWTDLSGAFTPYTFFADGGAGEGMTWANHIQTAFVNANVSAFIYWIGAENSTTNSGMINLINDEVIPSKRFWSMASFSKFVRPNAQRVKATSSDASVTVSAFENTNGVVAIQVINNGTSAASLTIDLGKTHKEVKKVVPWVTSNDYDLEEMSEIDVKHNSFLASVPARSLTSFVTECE
In words: X-ray crystallography (co-crystal, […] Å). The format is binding. As to conditions: co-crystallised with aldouronic acid mixture (Megazyme); pH 7.3, MgCl2; subsites -1, -2a and -2b of active site.

On to `CO[C@H]1[C@H](O)[C@@H](O)[C@@H](O[C@H]2[C@H](O[C@@H]3COC(O)[C@H](O)[C@H]3O)OC[C@@H](O)[C@@H]2O)O[C@@H]1C(=O)O` (stereo partly drawn) [U^4m2X, 2^2‐(4‐O‐methyl‐α‐D‐glucuronyl)‐xylobiose], for which the “X-ray crystallography (co-crystal, 1.65 Å)” value is reported as “A clear density map for U^4m2X is observed in the active cleft”.
